Data taken from publication PMC11603219, “Novel Dibenzoazepine-Substituted Triazole Hybrids as Cholinesterase and Carbonic Anhydrase Inhibitors and Anticancer Agents: Synthesis, Characterization, Biological Evaluation, and In Silico Studies” (ACS Omega, 2024).

Experiments:
BChE from equine serum = target: T1, BChE from equine serum (Equus caballus, UniProt P81908); experiment: biochemical; format: biochemical
T1 construct: from tissue; host or cells: equine serum
Procedure: All of the measurements were repeated thrice. AChE and BChE activity were assessed using a modified version of the Ellman method.[48] The measurement of AChE/BChE activity was conducted with acetylthiocholine iodide/butyrylthiocholine iodide as substrates along with 5,5-dithiobis (2-nitrobenzoic) acid.

hCA I = hCA I (Homo sapiens, UniProt P00915); experiment: biochemical; format: biochemical
Chain of hCA I (P00915 whole entry): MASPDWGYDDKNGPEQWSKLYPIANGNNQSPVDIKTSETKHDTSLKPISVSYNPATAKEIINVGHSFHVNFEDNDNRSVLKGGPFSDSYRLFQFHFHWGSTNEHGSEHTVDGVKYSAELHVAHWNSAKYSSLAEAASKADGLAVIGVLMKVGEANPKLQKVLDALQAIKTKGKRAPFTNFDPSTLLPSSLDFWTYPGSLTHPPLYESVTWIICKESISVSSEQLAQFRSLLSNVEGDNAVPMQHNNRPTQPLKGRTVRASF

hCA II = hCA II (Homo sapiens, UniProt P00918); experiment: biochemical; format: biochemical
BT-549 cells [1] = experiment: Colony formation inhibition assay; format: cell-based, human; conditions: for colony formation inhibition: 10 μM, 20 μM, and 30 μM, 7–10 days
AChE = AChE (Homo sapiens, UniProt P22303); experiment: biochemical; format: biochemical
Chain of AChE (P22303 32-614): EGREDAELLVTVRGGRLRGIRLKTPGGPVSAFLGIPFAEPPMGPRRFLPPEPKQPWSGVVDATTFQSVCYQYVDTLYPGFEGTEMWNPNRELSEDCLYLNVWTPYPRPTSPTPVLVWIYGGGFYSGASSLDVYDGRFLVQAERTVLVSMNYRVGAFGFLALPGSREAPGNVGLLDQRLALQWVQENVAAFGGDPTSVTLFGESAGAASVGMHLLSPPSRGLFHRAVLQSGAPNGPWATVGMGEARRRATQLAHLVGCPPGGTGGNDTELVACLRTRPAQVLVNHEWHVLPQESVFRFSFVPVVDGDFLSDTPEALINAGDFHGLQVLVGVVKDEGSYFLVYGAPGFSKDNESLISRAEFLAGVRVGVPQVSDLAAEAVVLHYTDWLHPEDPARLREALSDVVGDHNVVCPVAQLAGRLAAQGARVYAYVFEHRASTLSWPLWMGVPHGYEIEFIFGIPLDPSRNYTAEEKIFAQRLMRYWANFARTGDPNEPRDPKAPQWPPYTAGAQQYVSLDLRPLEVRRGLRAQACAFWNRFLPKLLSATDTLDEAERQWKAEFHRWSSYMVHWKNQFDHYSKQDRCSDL

BT-549 cells [2] = experiment: MTT cytotoxicity assay, BT-549; format: cell-based, human; conditions: 96 h treatment
MDA-MB-231 cells = experiment: MTT cytotoxicity assay, MDA-MB-231; format: cell-based; conditions: Homo sapiens, 72 h treatment
[3] = ratio of Ki versus tacrine (TAC/THA)

T1 sequence (P81908 whole entry): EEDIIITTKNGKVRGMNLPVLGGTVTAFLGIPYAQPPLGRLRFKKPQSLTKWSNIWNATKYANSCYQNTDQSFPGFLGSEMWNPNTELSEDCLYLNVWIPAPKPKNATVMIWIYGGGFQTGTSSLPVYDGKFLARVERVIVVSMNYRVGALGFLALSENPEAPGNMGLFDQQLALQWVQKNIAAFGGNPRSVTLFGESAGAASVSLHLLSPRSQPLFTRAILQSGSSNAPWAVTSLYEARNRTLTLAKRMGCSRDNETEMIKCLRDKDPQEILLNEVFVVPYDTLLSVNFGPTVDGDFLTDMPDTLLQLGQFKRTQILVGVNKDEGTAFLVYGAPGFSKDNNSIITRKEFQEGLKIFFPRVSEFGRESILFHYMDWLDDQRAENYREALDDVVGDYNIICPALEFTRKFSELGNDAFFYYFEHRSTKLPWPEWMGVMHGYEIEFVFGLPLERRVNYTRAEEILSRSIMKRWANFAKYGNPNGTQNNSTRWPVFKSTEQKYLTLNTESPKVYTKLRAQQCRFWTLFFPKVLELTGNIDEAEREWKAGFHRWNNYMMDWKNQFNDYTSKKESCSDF

| Compound | Ki (BChE from equine serum) [µM] | Ki (hCA I) [µM] | Ki (hCA II) [µM] | concentration at which BT-549 colonies were inhibited/suppressed (BT-549 cells [1]) [µM] | colony formation inhibition (BT-549 cells [1]) | Ki (AChE) [µM] | IC50 (BT-549 cells [2]) [µM] | IC50 (BT-549 cells [2]; Homo sapiens, BT-549, 96 h) [µM] | IC50 (MDA-MB-231 cells) [µM] | times more inhibition effect than compound 12, BChE (BChE from equine serum; ratio of Ki versus compound 12) | fold more active than tacrine for BChE (BChE from equine serum; [3]) [fold] | times more inhibition effect, BChE, compound 18 comparison (BChE from equine serum; ratio of Ki, compound 13 and compound 18) [times] | fold more active than tacrine for AChE (AChE; [3]) [fold] | fold more active than acetazolamide for hCA I (hCA I; ratio of Ki versus AZA) [fold] | fold more active than acetazolamide for hCA II (hCA II; ratio of Ki versus AZA) [fold] |
| --- | --- | --- | --- | --- | --- | --- | --- | --- | --- | --- | --- | --- | --- | --- | --- |
| NS(=O)(=O)c1ccc(-n2cc(CN3c4ccccc4C=Cc4ccccc43)nn2)cc1 [Compound 17, 4-(4-((5H-Dibenzo[b,f]azepin-5-yl)methyl)-1H-1,2,3-triazol-1-yl)benzenesulfonamide] | 0.0153 ± 0.00112 | 0.0405 ± 0.0111 | 0.0567 ± 0.0115 | 20 | suppressed the colonies | 0.019 ± 0.00544 | 17.4 ± 3.09 | ≤ 20 | 36.5 ± 1.62 |  |  |  |  |  |  |
| COc1cc(-n2cc(CN3c4ccccc4C=Cc4ccccc43)nn2)cc(OC)c1OC [Compound 19, 5-((1-(3,4,5-Trimethoxyphenyl)-1H-1,2,3-triazol-4-yl)methyl)-5H-dibenzo[b,f]azepine] | 0.00222 ± 0.00017 | 0.094 ± 0.0155 | 0.0614 ± 0.00911 | 20 | suppressed the colonies | 0.0345 ± 0.00854 | 18.1 ± 2.14 | ≤ 20 | > 150 |  |  |  |  |  |  |
| C1=Cc2ccccc2N(Cc2cn(-c3cccc4ccccc34)nn2)c2ccccc21 [Compound 13, 5-((1-(Naphthalen-1-yl)–1H-1,2,3-triazol-4-yl)methyl)-5H-dibenzo[b,f]azepine] | 0.00115 ± 0.00015 | 0.0621 ± 0.00853 | 0.0288 ± 0.00464 |  |  | 0.0141 ± 0.00381 |  | > 40 | > 125 | approximately 42.48 times | 49.70 | 34.04 | 5.49 |  |  |
| C1=Cc2ccccc2N(Cc2cn(-c3cccnc3)nn2)c2ccccc21 [Compound 14, 5-((1-(Pyridin-3-yl)-1H-1,2,3-triazol-4-yl)methyl)-5H-dibenzo[b,f]azepine] | 0.00765 ± 0.00149 | 0.0299 ± 0.00593 | 0.0177 ± 0.00154 | 10 | suppressed the colonies | 0.0212 ± 0.00587 | 16.6 ± 0.97 | ≤ 20 | > 75 |  |  |  |  | 4.16 | 5.79 |
| O=[N+]([O-])c1ccc(-n2cc(CN3c4ccccc4C=Cc4ccccc43)nn2)cc1 [Compound 18, 5-((1-(4-Nitrophenyl)-1H-1,2,3-triazol-4-yl)methyl)-5H-dibenzo[b,f]azepine] | 0.0391 ± 0.00882 | 0.118 ± 0.021 | 0.0697 ± 0.00593 |  |  | 0.0447 ± 0.00961 |  | > 40 | > 150 |  |  |  |  |  |  |
| C1=Cc2ccccc2N(Cc2cn(Cc3ccccc3)nn2)c2ccccc21 [Compound 12, 5-((1-Benzyl-1H-1,2,3-triazol-4-yl)methyl)-5H-dibenzo[b,f]azepine] | 0.0488 ± 0.00862 | 0.0488 ± 0.00468 | 0.0405 ± 0.00585 |  |  | 0.0289 ± 0.00352 |  | 33.5 ± 3.03 | 12.5 ± 1.92 |  |  |  |  |  |  |
| O=c1ccc2ccc(OCCn3cc(CN4c5ccccc5C=Cc5ccccc54)nn3)cc2o1 [Compound 16, 7-(2-(4-((5H-Dibenzo[b,f]azepin-5-yl)methyl)-1H-1,2,3-triazol-1-yl)ethoxy)-2H-chromen-2-one] | 0.0112 ± 0.00155 | 0.122 ± 0.0202 | 0.0546 ± 0.00199 |  | suppressed the colonies | 0.0175 ± 0.00219 | 17.7 ± 2.54 | ≤ 20 | > 150 |  |  |  |  |  |  |
| Oc1ccccc1-n1cc(CN2c3ccccc3C=Cc3ccccc32)nn1 [Compound 20, 2-(4-((5H-Dibenzo[b,f]azepin-5-yl)methyl)-1H-1,2,3-triazol-1-yl)phenol] | 0.0162 ± 0.00243 | 0.0804 ± 0.0156 | 0.0894 ± 0.00492 |  |  | 0.0228 ± 0.00478 |  | 36.2 ± 3.77 | > 100 |  |  |  |  |  |  |
| COc1ccc(-n2cc(CN3c4ccccc4C=Cc4ccccc43)nn2)cc1 [Compound 15, 5-((1-(4-Methoxyphenyl)-1H-1,2,3-triazol-4-yl)methyl)-5H-dibenzo[b,f]azepine] | 0.00411 ± 0.00046 | 0.0547 ± 0.00963 | 0.0391 ± 0.00217 | 20 | suppressed the colonies | 0.0241 ± 0.00045 |  | 26.8 ± 4.6 | > 150 |  |  |  |  |  |  |
